Assays:
THP-1 cells [1] = assay: XTT cytotoxicity assay, THP-1; assay type: cell-based, human; details: Homo sapiens, THP-1; XTT, 48 h incubation, none in the picture
Method: (§1) The cytotoxic activity test with XTT (sodium 3′-[1-(phenylaminocarbonyl)- 3,4-tetrazolium]-bis (4-methoxy-6-nitro) benzene sulfonic acid hydrate) is a colorimetric method for determining the parameters associated with cell viability. The cytotoxicity in HL-60, THP-1, MOLT-4, and HMEC-1 cells was measured by the XTT assay. XTT is reduced to formazan by the mitochondrial respiratory chain oxidoreductase, which is active only in living cells. The formed crystals of formazan are dissolved directly in the medium. The amount of product is proportional to the number of live cells.
(§2) The IC50 parameter was determined by dividing the mean absorbance values of the drug-treated samples by those of control cells and defined as the drug concentration causing a 50% reduction of cell viability relative to the control. It was calculated using the “Ed50v10(1)” computer application. Cells were plated in 96-well plates at a density of 15 × 10^3 cells in 100 μL culture medium. Drugs were then added at a concentration range of 10 nM–10,000 nM to obtain a final volume of the mixture of 150 μL. Some cells were preincubated with an ATR kinase inhibitor (VE-821) for 1 h at 37 °C before adding the tested compounds. In this case drugs were added at a concentration range of 10 nM–300 nM. For the XTT assay, after 48 h of incubation, the plates were centrifuged at 1,500 rpm for 10 min at 4 °C, the culture medium was removed, and the cells were suspended in 100 mm^3 of HBSS (Hank’s Buffered Salt Solution) containing 140 mM NaCl, 5 mM KCl, 0.8 mM MgCl2, 1.8 mM CaCl2, 1 mM Na2HPO4, 10 mM HEPES (N- (2-hydroxyethyl) -piperazine-N′- (2-ethanesulfonic acid), and 1% glucose at pH 7.4. Then, 50 μL of XTT solution (in PBS) was added to a final concentration of […]. In addition, PMS (phenazine methosulphate) - methyl dibenzo-N-methylpyrazine sulphate (0.383 mg/cm^3) was used, which was combined with XTT solution at a ratio of 1:50. After 4 h of incubation with XTT, absorbance was measured at a wavelength λ = 450 nm and reference wavelength λ = 690 nm with a microplate reader (BioTek, Winooski, VT, USA).

MOLT-4 cells = assay: XTT cytotoxicity assay, MOLT-4; assay type: cell-based, human; details: Homo sapiens, MOLT-4; XTT, 48 h incubation, none in the picture
Method: as §1, §2

HL-60 cells [2] = assay: XTT cytotoxicity assay, HL-60; assay type: cell-based; details: Homo sapiens, 48 h incubation, none in the picture
Method: as §1, §2

HMEC-1 cells = assay: XTT cytotoxicity assay, HMEC-1 (normal dermal endothelium); assay type: cell-based; details: Homo sapiens, 48 h incubation, none in the picture
Method: as §1, §2

[3] = system: leukemic cells (HL-60, MOLT-4, THP-1); assay: XTT cytotoxicity assay, leukemic cells overall; assay type: cell-based, human; details: for cytotoxicity (in words): XTT, leukemic cell lines
Method: as §1, §2

[4] = system: caspase-3/7 in HL-60 cells; assay: Caspase 3/7 assay, HL-60; assay type: cell-based, human; details: HL-60, 48 h
Method: (§3) The activities of caspases-3 and −7 were estimated with CellEvent™ Caspse-3/7 Green Detection Reagent (Thermo Fisher Scientific) according to the manufacturer’s protocol. The cells were seeded on 96-well plates (15 × 10^3/ well) and 24 h later, incubated with the appropriate drugs for 24 h or 48 h. The cells were fixed by adding a final concentration of 4% paraformaldehyde solution (10 min, room temperature). Cells were labeled with CellEvent™Caspase-3/7 Green Detection Reagent (5 µM), followed by Hoechst 33342 (5 µg/ml) for 15 minutes in complete medium3. Caspase-3/7 Green Detection Reagent was diluted into PBS with 5% FBS to avoid fluorescence background. After activation of caspase-3/7 in apoptotic cells, the DEVD peptide was cleaved, enabling the dye to bind DNA, which produced a bright, fluorogenic response with absorption/emission maxima of 502/530 nm according with manufacture protocol. Fluorescence intensity was measured using a Fluoroskan Ascent FL plate reader (Labsystem, Sweden). Cysteine protease activity was expressed as a ratio of fluorescence of the drug-treated samples to the corresponding untreated controls (taken as 100%). In some experimental variants, cells were preincubated for 1 h with VE-821 (10 µM) or Z-FA-FMK (caspas-3 inhibitor, 0.5 µM) to confirm that the fluorescence observed in both control and drug-treated cells was due to the presence of caspase-3/7 in samples. The caspase 3/7 signal was normalized to the Hoechst 33342 staining intensity to account for differences in cell seeding density (description in: Intracellular calcium assay section).

[5] = system: caspase-3/7 in MOLT-4 cells; assay: Caspase 3/7 assay, MOLT-4; assay type: cell-based, human; details: MOLT-4, 48 h
Method: as §3, with “After activation of caspase-3/7 in apoptotic cells, the DEVD peptide was cleaved, enabling the dye to bind DNA, which produced a bright, fluorogenic response with absorption/emission maxima of 502/530 nm according with manufacture protocol.” left out, “The caspase 3/7 signal was normalized to the Hoechst 33342 staining intensity to account for differences in cell seeding density (description in: Intracellular calcium assay section).” left out

[6] = system: caspase-3/7 in THP-1 cells; assay: Caspase 3/7 assay, THP-1; assay type: cell-based, human; details: THP-1, 48 h
Method: as §3, with “After activation of caspase-3/7 in apoptotic cells, the DEVD peptide was cleaved, enabling the dye to bind DNA, which produced a bright, fluorogenic response with absorption/emission maxima of 502/530 nm according with manufacture protocol.” left out, “The caspase 3/7 signal was normalized to the Hoechst 33342 staining intensity to account for differences in cell seeding density (description in: Intracellular calcium assay section).” left out

γH2AX in HL-60 cells = assay: H2AX (phospho S139) In-Cell ELISA, HL-60; assay type: cell-based, human; details: HL-60, 48 h, versus control cells
Method: The level H2AX protein phosphorylated Ser139 was measured in tested leukemia cells by using of In-Cell ELISA, ICE assay kit. The cells were seeded on 96-well plates (100 × 10^3/well) and 48 h later, incubated with the appropriate compounds. In some experimental variants, cells were preincubated for 1 h with VE-821 (10 µM). The cells were fixed by adding a final concentration of 4% paraformaldehyde solution (10 min, room temperature). After 2 h of Block Solution incubation, cells were treated with a highly specific antibody. A rabbit monoclonal antibody specific to H2AX (phospho S139) was used (at 1:100, 2 h incubation). Next Secondary Antibody Solution (at 1:1000) were added to the cells. The measurements were obtained on a fluorescence plate reader at an excitation wavelength of 680 nm and emission at 694 nm. The cells were PBS washed and 100 µL of Janus Green Stain was added to each well of the plate (5 min., room temperature). The data were collected at excitation wavelength of 750 nm and emission at 800 nm channel (Fluoroskan Cary Eclipse). Antibody signal intensity was normalized to the total amount using Janus Green cell-stain.

dCK in THP-1 cells = assay: Deoxycytidine kinase activity, THP-1; assay type: cell-based, human; details: THP-1, 24 h incubation
Method: (§4) Deoxycytidine kinase activity was measured in accordance with the manufacturer’s protocol. The cells, at final concentration were plated at 1 × 10^6 cells per 24-well plates and cultured with the tested compounds for 24 h. Some cells were preincubated with an ATR kinase inhibitor (VE-821) for 1 h at 37 °C before adding the tested compounds. After drug treatment, the cells were washed with PBS and resuspended in an ice-cold cytosol extraction buffer containing 1 mM phenylmethylsulfonyl fluoride (PMSF) and a protease inhibitor cocktail. The cell lysate was centrifuged at 10,000 × g for 30 min at 4 °C. The protein concentration was determined using the Bradford method. The supernatant (cytosolic fraction) was collected and stored at −80 °C. The clarified cytoplasm extracts, dCK standards, and blank control were added to the appropriate microtiter plate wells with a biotin-conjugated polyclonal antibody prepared specifically for dCK. Avidin conjugated to horseradish peroxidase (HRP) was added to each microplate well and incubated. Then, a TMB substrate solution was added to the plate. […] The enzyme-substrate reaction was terminated by addition of a sulfuric acid solution. The color change was measured spectrophotometrically at a wavelength of 450 nm using a microplate reader (BioTek).

dCK in HL-60 cells = assay: Deoxycytidine kinase activity, HL-60; assay type: cell-based, human; details: HL-60, 24 h incubation
Method: as §4

dCK in MOLT-4 cells = assay: Deoxycytidine kinase activity, MOLT-4; assay type: cell-based, human; details: MOLT-4, 24 h incubation
Method: as §4

HL-60 cells [7] = assay: Comet assay with proteinase K post-treatment (DNA-protein cross-links), HL-60; assay type: cell-based, human; details: HL-60, starting at 2 h of incubation
Method: (§5) Single cell gel electrophoresis (comet assay) was used to detect alkali labile sites, single and double DNA strand breaks, and cross-links induced by genotoxic agents. After electrophoresis and gel staining with 4,6-diamidino-2-phenylindole (DAPI), the released DNA was visible under a fluorescence microscope as a characteristic comet tail. The cells were plated on 24-well plates (20,000 cells/mL) and treated with CLA, CLA-FMOR, CLA-FPIP, or CLA-FPIR at the indicated concentrations for 2, 24, and 48 h at 37 °C. Some cells were preincubated with an ATR kinase inhibitor (VE-821) for 1 h at 37 °C before adding the tested compounds. Next, cells were collected into Eppendorf tubes and rinsed with PBS. Then, cells were suspended in 0.75% low melting point (LMP) agarose dissolved in PBS (pH 7.4) and placed on microscope slides precoated with 0.5% normal melting point (NMP) agarose. Subsequently, the slides were treated with a cooled lysis buffer (2.5 M NaCl, 100 mM EDTA, 10 mM Tris, 1% Triton X-100, pH 9.0) for 1–24 h at 4 °C. Then, slides were placed in developing buffer (300 mM NaOH, 1 mM EDTA) for 20 min. Electrophoresis was performed in […] (30 mM NaOH, 1 mM EDTA) at 29 V and 30 mA for 20 min. The samples were stained with DAPI ([…]). The slides were stored in a wet chamber at 4 °C and analyzed under a fluorescence microscope. Fifty randomly selected cells from each slide were measured using image analysis (Nikon, Japan) attached to a COHU 4910 video camera, which was equipped with a UV-1 filter block consisting of an excitation filter (359 nm) and a barrier filter (461 nm) connected to the image analysis system Lucia-Comet v. 4.51 (Czech Republic)[41]. In the samples preincubated with VE-821, the level of DNA damage associated with the ATR kinase was determined.
Because cross-links can be undetectable in the alkaline comet assay, a variant of this method including post-treatment with proteinase K (Cat no: P2308) was used. Proteinase K digests peptide bonds, releasing the cross-linked DNA […] the DNA-protein complexes without altering the structure of the DNA-DNA complexes to distinguish them. After lysis, the slides were washed three times in TE buffer (10 mM Tris, pH 10, 1 mM EDTA). The cells were treated with aliquots of proteinase K (60 µL per slide; 1 mg/mL TE buffer) for 1 h at 37 °C in a wet chamber. Further steps of the comet assay were performed as described above.

THP-1 cells [8] = assay: Comet assay with proteinase K post-treatment (DNA-protein cross-links), THP-1; assay type: cell-based, human; details: THP-1, 24 h
Method: as §5
Because cross-links can be undetectable in the alkaline comet assay, a variant of this method including post-treatment with proteinase K (Cat no: P2308) was used. […]

SMILES | IC50 (THP-1 cells [1]) [nM] | IC50 (MOLT-4 cells) [nM] | IC50 (HL-60 cells [2]) [nM] | IC50 (HMEC-1 cells) [nM] | cytotoxicity (in words) [3] | other results
OC[C@H]1O[C@@H](n2cnc3c(N=CN4CCCCCC4)nc(Cl)nc32)C[C@@H]1O [CLA-FHEX] | 172 | 348 | 647 | 1080 | low cytotoxicity | 
CN(C)C=Nc1nc(Cl)nc2c1ncn2[C@H]1C[C@H](O)[C@@H](CO)O1 [CLA-FDMF, [6-deamino-6-(N′,N′-dimethyl formamidine)] cladribine] | 220 | 220 | 184 | 412 | low cytotoxicity | 
CN1CCN(C=Nc2nc(Cl)nc3c2ncn3[C@H]2C[C@H](O)[C@@H](CO)O2)CC1 [CLA-FPAZ] | 168 | 353 | 190 | 710 | low cytotoxicity | 
CC(NC(=O)[C@H](Cc1ccccc1)NC(=O)OCc1ccccc1)C(=O)CF (some centres unmarked) [Z-FA-FMK, reference compound] |  |  |  |  |  | caspase-3/7 level [4]: totally prevented caspase activation; caspase-3/7 level [5]: totally prevented caspase activation; caspase-3/7 level [6]: totally prevented caspase activation
Nc1nc(Cl)nc2c1ncn2[C@H]1C[C@H](O)[C@@H](CO)O1 [CLA, cladribine, reference compound] | 56 | 103 | 246 | 126 |  | increase in γH2AX level (γH2AX in HL-60 cells): ~ 2.4 fold
CS(=O)(=O)c1ccc(-c2cnc(N)c(C(=O)Nc3ccccc3)n2)cc1 [C+VE-821, reference compound] |  |  |  |  |  | dCK activity (dCK in THP-1 cells): decreased dCK activity; dCK activity (dCK in HL-60 cells): decreased dCK activity; dCK activity (dCK in MOLT-4 cells): decreased dCK activity; effect of ATR inhibitor on cytotoxicity of CLA and derivatives ([3]; 10 μM VE-821 preincubation, XTT 48 h): reduces the cytotoxicity of all tested compounds
OC[C@H]1O[C@@H](n2cnc3c(N=CN4CCCCC4)nc(Cl)nc32)C[C@@H]1O [CLA-FPIP, [6-deamino-6-(N′, N′-1′, 5′-pentamethylene formamidine)] cladribine] | 69 | 110 | 133 | 435 | high cytotoxic activity | caspase-3/7 level [4]: highest changes; DNA-protein cross-links after proteinase K (HL-60 cells [7]): increased the level of cross-links; DNA damage in the tail after proteinase K (THP-1 cells [8]): increased
